# Assays:
# [1] = tested on: Serratia marcescens IAM1184; assay: MIC, twofold agar dilution; format: cell-based; conditions: Gram -, 10^6 cells/ml, 18 hrs, 37° C., read-out: Minimum inhibitory concentration (MIC)
# Method: (§1) Minimum inhibitory concentrations (MIC) were determined by the twofold agar dilution method (Chemotherapy, 29(1), 76(1981)). Overnight cultures in Mueller-Hinton broth were suspended by buffered saline gelatine. One loopful of the bacterial suspension (10^6 or 10^8 colony-forming units/ml) was incubated onto the test compound-containing plates. The plates were incubated for 18 hrs. at 37° C. The MIC was the lowest concentration of the drug that inhibited visible growth.
# [2] = tested on: Staphylococcus aureus MS-353; assay: MIC, twofold agar dilution; format: cell-based; conditions: MS353, Gram +, 10^6 cells/ml, 18 hrs, 37° C., read-out: Minimum inhibitory concentration (MIC)
# Method: as §1
# [3] = tested on: Streptococcus pyogenes Cook; assay: MIC, twofold agar dilution; format: cell-based; conditions: Gram +, 10^6 cells/ml, 18 hrs, 37° C., read-out: Minimum inhibitory concentration (MIC)
# Method: as §1
# [4] = tested on: Salmonella schottmulleri 0006; assay: MIC, twofold agar dilution; format: cell-based; conditions: Gram -, 10^6 cells/ml, 18 hrs, 37° C., read-out: Minimum inhibitory concentration (MIC)
# Method: as §1
# [5] = tested on: Staphylococcus aureus FAD208PJC-1; assay: MIC, twofold agar dilution; format: cell-based; conditions: FAD208PJC1, Gram +, 10^6 cells/ml, 18 hrs, 37° C., read-out: Minimum inhibitory concentration (MIC)
# Method: as §1
# [6] = tested on: Escherichia coli K-12 C600; assay: MIC, twofold agar dilution; format: cell-based; conditions: K12C600, Gram -, 10^6 cells/ml, 18 hrs, 37° C., read-out: Minimum inhibitory concentration (MIC)
# Method: as §1
# [7] = tested on: Enterobacter cloaceas 963; assay: MIC, twofold agar dilution; format: cell-based; conditions: Gram -, 10^6 cells/ml, 18 hrs, 37° C., read-out: Minimum inhibitory concentration (MIC)
# Method: as §1
# [8] = tested on: Salmonella typhimurium IID 971; assay: MIC, twofold agar dilution; format: cell-based; conditions: Salmonella enterica; Gram -; 10^6 cells/ml; 18 hrs, 37° C.; read-out: Minimum inhibitory concentration (MIC)
# Method: as §1
# [9] = tested on: Salmonella typhi 901; assay: MIC, twofold agar dilution; format: cell-based; conditions: Salmonella enterica, 18 h, read-out: Minimum inhibitory concentration (MIC)
# Method: as §1
# [10] = tested on: Pseudomonas aeruginosa PAO7; assay: MIC, twofold agar dilution; format: cell-based; conditions: Gram -, 10^6 cells/ml, 18 hrs, 37° C., read-out: Minimum inhibitory concentration (MIC)
# Method: as §1
# [11] = tested on: Klebsiella pneumoniae PCI-602; assay: MIC, twofold agar dilution; format: cell-based; conditions: PCI602, Gram -, 10^6 cells/ml, 18 hrs, 37° C., read-out: Minimum inhibitory concentration (MIC)
# Method: as §1
# [12] = tested on: Bacillus subtilis ATCC6633; assay: MIC, twofold agar dilution; format: cell-based; conditions: Gram +, 10^6 cells/ml, 18 hrs, 37° C., read-out: Minimum inhibitory concentration (MIC)
# Method: as §1
# [13] = tested on: Enterobacter aerogenes ATCC13048; assay: MIC, twofold agar dilution; format: cell-based; conditions: Klebsiella aerogenes, Gram -, 10^6 cells/ml, 18 hrs, 37° C., read-out: Minimum inhibitory concentration (MIC)
# Method: as §1
# [14] = tested on: Escherichia coli NIHJ-JC-2; assay: MIC, twofold agar dilution; format: cell-based; conditions: NIHJJC2, Gram -, 10^6 cells/ml, 18 hrs, 37° C., read-out: Minimum inhibitory concentration (MIC)
# Method: as §1
# [15] = tested on: Pseudomonas aeruginosa ATCC9027; assay: MIC, twofold agar dilution; format: cell-based; conditions: Gram -, 10^6 cells/ml, 18 hrs, 37° C., read-out: Minimum inhibitory concentration (MIC)
# Method: as §1
# [16] = tested on: Staphylococcus aureus Terajima; assay: MIC, twofold agar dilution; format: cell-based; conditions: Gram +, 10^6 cells/ml, 18 hrs, 37° C., read-out: Minimum inhibitory concentration (MIC)
# Method: as §1
# [17] = tested on: Salmonella paratyphi 1015; assay: MIC, twofold agar dilution; format: cell-based; conditions: Salmonella enterica, 18 h, read-out: Minimum inhibitory concentration (MIC)
# Method: as §1
# [18] = tested on: Proteus rettgeri IFO3850; assay: MIC, twofold agar dilution; format: cell-based; conditions: Providencia rettgeri, Gram -, 10^6 cells/ml, 18 hrs, 37° C., read-out: Minimum inhibitory concentration (MIC)
# Method: as §1
# [19] = tested on: Salmonella enteritidis G14; assay: MIC, twofold agar dilution; format: cell-based; conditions: Salmonella enterica, Gram -, 10^6 cells/ml, 18 hrs, 37° C., read-out: Minimum inhibitory concentration (MIC)
# Method: as §1
# [20] = tested on: Pseudomonas aeruginosa IFO3445; assay: MIC, twofold agar dilution; format: cell-based; conditions: Gram -, 10^6 cells/ml, 18 hrs, 37° C., read-out: Minimum inhibitory concentration (MIC)
# Method: as §1
# [21] = tested on: Micrococcus luteus ATCC9341; assay: MIC, twofold agar dilution; format: cell-based; conditions: Gram +, 10^6 cells/ml, 18 hrs, 37° C., read-out: Minimum inhibitory concentration (MIC)
# Method: as §1
# [22] = tested on: Proteus vulgalis OX-19; assay: MIC, twofold agar dilution; format: cell-based; conditions: Gram -; 10^6 cells/ml; 18 hrs, 37° C.; read-out: Minimum inhibitory concentration (MIC)
# Method: as §1
# [23] = tested on: Proteus vulgalis HX-19; assay: MIC, twofold agar dilution; format: cell-based; conditions: Gram -; 10^6 cells/ml; 18 hrs, 37° C.; read-out: Minimum inhibitory concentration (MIC)
# Method: as §1
# [24] = tested on: Proteus mirabilis IFO3849; assay: MIC, twofold agar dilution; format: cell-based; conditions: Gram -, 10^6 cells/ml, 18 hrs, 37° C., read-out: Minimum inhibitory concentration (MIC)
# Method: as §1
# [25] = tested on: Pseudomonas aeruginosa NCTC10490; assay: MIC, twofold agar dilution; format: cell-based; conditions: Gram -, 10^6 cells/ml, 18 hrs, 37° C., read-out: Minimum inhibitory concentration (MIC)
# Method: as §1
# [26] = tested on: Proteus morganii IFO3848; assay: MIC, twofold agar dilution; format: cell-based; conditions: Morganella morganii, Gram -, 10^6 cells/ml, 18 hrs, 37° C., read-out: Minimum inhibitory concentration (MIC)
# Method: as §1
# [27] = Urinary excretion in rats after oral dosing (bioassay with Escherichia coli NIHJ-JC-2); format: in vivo, SD strain); conditions: rat, male SD rats, 20 mg/Kg per os, fasted 24 hr
# Method: Male rats of SD strain, weighing 180-210 g, were used 8 animals at a group. Test compounds suspended in 0.5% carboxymethyl cellulose were administered per os to 24 hr-fasted rats at dose of 20 mg/Kg. Urine was pooled from 0 to 6 hrs. and 6 to 24 hrs, and urinary excretion was measured by bioassay using Escherichia coli NIHJ-JC-2.
# The assay method employed was the cup-plate method using
# Escherichia coli NIHJ-JC-2. Urine was appropriately diluted with 1/15M phosphate buffer pH7.0, before assay if necessary. Standard calibration lines were made in 1/15M phosphate buffer pH7.0.
Structure (SMILES),MIC [1] [µg/mL],MIC [2] [µg/mL],MIC [3] [µg/mL],MIC [4] [µg/mL],MIC [5] [µg/mL],MIC [6] [µg/mL],MIC [7] [µg/mL],MIC [8] [µg/mL],MIC [9] [µg/mL],MIC [10] [µg/mL],MIC [11] [µg/mL],MIC [12] [µg/mL],MIC [13] [µg/mL],MIC [14] [µg/mL],MIC [15] [µg/mL],MIC [16] [µg/mL],MIC [17] [µg/mL],MIC [18] [µg/mL],MIC [19] [µg/mL],MIC [20] [µg/mL],other results
"CCn1cc(C(=O)O)c(=O)c2cc(F)c(N3CCNCC3)cc21 [Reference Drug, norfloxacin, reference compound]",0.1,6.25,1.56,0.025,0.2,0.05,0.05,0.05,0.025,0.39,0.025,0.1,0.1,0.05,0.05,0.39,0.025,0.05,0.05,0.78,MIC [21]: 6.25 µg/mL; MIC [22]: 0.05 µg/mL; MIC [23]: 0.025 µg/mL; MIC [24]: 0.1 µg/mL; MIC [25]: 0.78 µg/mL; MIC [26]: 0.025 µg/mL
"CC1CN(c2c(F)cc3c(=O)c(C(=O)O)cn(CCF)c3c2F)CCN1 (stereo not shown) [Example 16, 6,8-Difluoro-1-(2-fluoroethyl)-1,4-dihydro-7-(3-methyl-1-piperazinyl)-4-oxoquinoline-3-carboxylic acid]",0.2,1.56,3.13,0.1,0.38,0.2,0.2,0.2,0.1,1.56,0.023,0.2,0.2,0.1,0.1,0.78,0.05,0.2,0.2,0.78,"concentration at 6 h ([27]; urine 0-6 hr, read-out: Drug Concentration in Urine 0-6 (hr)): 344 µg/mL; dose excreted at 24 h ([27]; urine 0-24 hr, read-out: Rate of Urinary Excretion 0-24 (hr)): 41%; concentration at 24 h ([27]; urine 6-24 hr, read-out: Drug Concentration in Urine 6-24 (hr)): 46 µg/mL; MIC [21]: 6.25 µg/mL; MIC [22]: 0.2 µg/mL; MIC [23]: 0.05 µg/mL; MIC [24]: 0.39 µg/mL; MIC [25]: 0.38 µg/mL; MIC [26]: 0.05 µg/mL"

# Source: patent publication US4528287A, “6-Fluoro-1, 4-dihydro-4-oxo-7-substituted piperazinylquinoline-3-carboxylic acids and the method for preparing the same” (priority 1983, dated 1985)
